# Source: patent publication US10227344B2, “CK2 inhibitors, compositions and methods thereof” (Polaris Pharmaceuticals, Inc., priority 2016, dated 2019)
# Experiments:
# Assay type in all cases: cell-based
# [1] = tested on: Colo205; assay: Cancer cell panel, cell viability (resazurin): Colon, Colo205; settings: 72 hours, labelled drug combined with Example 3
# [2] = tested on: MDA-MB-157; assay: Cancer cell panel, cell viability (resazurin): Breast, MDA-MB-157; settings: MDA-MB-157 (Breast), 72 hours; labelled drug combined with Example 3
# Description: (§1) Cells were plated in 96-well plates and treated for 72 hours with a serially diluted CK2 inhibitor or anti-cancer drug or their combination. The suspension cell lines were treated right after plating, while the adherent cells were allowed to attach overnight prior to the start of the treatment.
# (§2) Cell viability was determined by adding resazurin to cell cultures and measuring fluorescence with a plate reader. Relative cell viability was calculated by dividing the cell viability signal from a test sample by that of a non-treated control. […] Bliss Independence and Highest Single Agent models were used to determine if there is synergy, additivity or antagonism between the CK2 inhibitor and an anti-cancer drug.
# [3] = tested on: A549; assay: Cancer cell panel, cell viability (resazurin): NSCLC, A549; settings: 72 hours, labelled drug combined with Example 3
# [4] = tested on: MeWO; assay: Cancer cell panel, cell viability (resazurin): Melanoma, MeWO; settings: 72 hours, labelled drug combined with Example 3
# [5] = tested on: MOLT4; assay: Cancer cell panel, cell viability (resazurin): Leukemia, MOLT4; settings: 72 hours, labelled drug combined with Example 3
# Description: as §1, §2
# [6] = tested on: HCT116; assay: Cancer cell panel, cell viability (resazurin): Colon, HCT116; settings: 72 hours, labelled drug combined with Example 3
# Description: as §1, §2
# [7] = tested on: K562; assay: Cancer cell panel, cell viability (resazurin): Leukemia, K562; settings: 72 hours, labelled drug combined with Example 3
# [8] = tested on: A375; assay: Cancer cell panel, cell viability (resazurin): Melanoma, A375; settings: 72 hours, labelled drug combined with Example 3
# Description: as §1, §2
# [9] = tested on: LnCap; assay: Cancer cell panel, cell viability (resazurin): Prostate, LnCap; settings: 72 hours, labelled drug combined with Example 3
# Description: as §1, §2
# [10] = tested on: BT-474; assay: Cancer cell panel, cell viability (resazurin): Breast, BT-474; settings: BT-474 (Breast), 72 hours; labelled drug combined with Example 3
# [11] = tested on: ZR-75-1; assay: Cancer cell panel, cell viability (resazurin): Breast, ZR-75-1; settings: ZR-75-1 (Breast), 72 hours; labelled drug combined with Example 3
# Description: as §1, §2
# [12] = tested on: RPMI8226; assay: Cancer cell panel, cell viability (resazurin): multiple myeloma, RPMI8226; settings: 72 hours, labelled drug combined with Example 3
# [13] = tested on: BxPC3; assay: Cancer cell panel, cell viability (resazurin): Pancreatic, BxPC3; settings: 72 hours, labelled drug combined with Example 3
# Description: as §1, §2
# [14] = tested on: NAMALWA; assay: Cancer cell panel, cell viability (resazurin): Burkitt's Lymphoma, NAMALWA; settings: 72 hours, labelled drug combined with Example 3
# Description: as §1, §2
# [15] = tested on: Ramos; assay: Cancer cell panel, cell viability (resazurin): Burkitt's Lymphoma, Ramos; settings: 72 hours, labelled drug combined with Example 3
# [16] = tested on: H23; assay: Cancer cell panel, cell viability (resazurin): NSCLC, H23; settings: 72 hours, labelled drug combined with Example 3
# [17] = tested on: Caov-3; assay: Cancer cell panel, cell viability (resazurin): Ovarian, Caov-3; settings: Caov-3 (Ovarian), 72 hours; labelled drug combined with Example 3
# [18] = tested on: HL60; assay: Cancer cell panel, cell viability (resazurin): Leukemia, HL60; settings: 72 hours, labelled drug combined with Example 3
# [19] = tested on: SKOV-3; assay: Cancer cell panel, cell viability (resazurin): Ovarian, SKOV-3; settings: SKOV-3 (Ovarian), 72 hours; labelled drug combined with Example 3
# [20] = tested on: LoVo; assay: Cancer cell panel, cell viability (resazurin): Colon, LoVo; settings: 72 hours, labelled drug combined with Example 3
# [21] = tested on: SK-MEL-3; assay: Cancer cell panel, cell viability (resazurin): Melanoma, SK-MEL-3; settings: SK-MEL-3 (Melanoma), 72 hours; labelled drug combined with Example 3
# [22] = tested on: DLD-1; assay: Cancer cell panel, cell viability (resazurin): Colon, DLD-1; settings: DLD-1 (Colon), 72 hours; labelled drug combined with Example 3
# [23] = tested on: SK-MEL-24; assay: Cancer cell panel, cell viability (resazurin): Melanoma, SK-MEL-24; settings: SK-MEL-24 (Melanoma), 72 hours; labelled drug combined with Example 3
# [24] = tested on: WM-115; assay: Cancer cell panel, cell viability (resazurin): Melanoma, WM-115; settings: WM-115 (Melanoma), 72 hours; labelled drug combined with Example 3
# [25] = tested on: 786-O; assay: Cancer cell panel, cell viability (resazurin): Renal, 786-O; settings: 786-O (Renal), 72 hours; labelled drug combined with Example 3
# [26] = tested on: H460; assay: Cancer cell panel, cell viability (resazurin): NSCLC, H460; settings: 72 hours, labelled drug combined with Example 3
# [27] = tested on: U266; assay: Cancer cell panel, cell viability (resazurin): multiple myeloma, U266; settings: 72 hours, labelled drug combined with Example 3
# [28] = tested on: Raji; assay: Cancer cell panel, cell viability (resazurin): Burkitt's Lymphoma, Raji; settings: 72 hours, labelled drug combined with Example 3
# [29] = tested on: H1299; assay: Cancer cell panel, cell viability (resazurin): NSCLC, H1299; settings: 72 hours, labelled drug combined with Example 3
# Description: as §1, §2
# [30] = tested on: Daudi; assay: Cancer cell panel, cell viability (resazurin): Burkitt's Lymphoma, Daudi; settings: 72 hours, labelled drug combined with Example 3
# Description: as §1, §2
# [31] = tested on: H1975; assay: Cancer cell panel, cell viability (resazurin): NSCLC, H1975; settings: 72 hours, labelled drug combined with Example 3
# Description: as §1, §2
smiles,measurement,setting,value
"CC[C@]1(O)C[C@@H]2CN(CCc3c([nH]c4ccccc34)[C@@](C(=O)OC)(c3cc4c(cc3OC)N(C)[C@H]3[C@@](O)(C(=O)OC)[C@H](OC(C)=O)[C@]5(CC)C=CCN6CC[C@]43[C@@H]65)C2)C1 [Vinblastine, vinblastine]","synergy, additivity or antagonism of the combination of Example 3 with the anti-cancer drug",[1],+ + + (Synergy relative to each agent alone (CI = 0.4-0.74 by Bliss Independence Model))
same,"synergy, additivity or antagonism of the combination of Example 3 with the anti-cancer drug",[2],+ + (Slight synergy relative to each agent alone (CI = 0.75-0.9 by Bliss Independence Model))
same,"synergy, additivity or antagonism of the combination of Example 3 with the anti-cancer drug",[3],+ + + (Synergy relative to each agent alone (CI = 0.4-0.74 by Bliss Independence Model))
same,"synergy, additivity or antagonism of the combination of Example 3 with the anti-cancer drug",[4],+ (Additive relative to each agent alone (CI = 0.9-1 by Bliss Independence Model and <0.9 by Highest Single Agent Model))
same,"synergy, additivity or antagonism of the combination of Example 3 with the anti-cancer drug",[5],− (Slightly antagonistic relative to each agent alone (CI = 1.1-1.2 by Highest Single Agent Model))
same,"synergy, additivity or antagonism of the combination of Example 3 with the anti-cancer drug",[6],+ (Additive relative to each agent alone (CI = 0.9-1 by Bliss Independence Model and <0.9 by Highest Single Agent Model))
same,"synergy, additivity or antagonism of the combination of Example 3 with the anti-cancer drug",[7],+ (Additive relative to each agent alone (CI = 0.9-1 by Bliss Independence Model and <0.9 by Highest Single Agent Model))
same,"synergy, additivity or antagonism of the combination of Example 3 with the anti-cancer drug",[8],+ (Additive relative to each agent alone (CI = 0.9-1 by Bliss Independence Model and <0.9 by Highest Single Agent Model))
same,"synergy, additivity or antagonism of the combination of Example 3 with the anti-cancer drug",[9],+ (Additive relative to each agent alone (CI = 0.9-1 by Bliss Independence Model and <0.9 by Highest Single Agent Model))
same,"synergy, additivity or antagonism of the combination of Example 3 with the anti-cancer drug",[10],+ (Additive relative to each agent alone (CI = 0.9-1 by Bliss Independence Model and <0.9 by Highest Single Agent Model))
same,"synergy, additivity or antagonism of the combination of Example 3 with the anti-cancer drug",[11],+ (Additive relative to each agent alone (CI = 0.9-1 by Bliss Independence Model and <0.9 by Highest Single Agent Model))
same,"synergy, additivity or antagonism of the combination of Example 3 with the anti-cancer drug",[12],+ (Additive relative to each agent alone (CI = 0.9-1 by Bliss Independence Model and <0.9 by Highest Single Agent Model))
same,"synergy, additivity or antagonism of the combination of Example 3 with the anti-cancer drug",[13],+ + + (Synergy relative to each agent alone (CI = 0.4-0.74 by Bliss Independence Model))
same,"synergy, additivity or antagonism of the combination of Example 3 with the anti-cancer drug",[14],+ (Additive relative to each agent alone (CI = 0.9-1 by Bliss Independence Model and <0.9 by Highest Single Agent Model))
same,"synergy, additivity or antagonism of the combination of Example 3 with the anti-cancer drug",[15],+ (Additive relative to each agent alone (CI = 0.9-1 by Bliss Independence Model and <0.9 by Highest Single Agent Model))
same,"synergy, additivity or antagonism of the combination of Example 3 with the anti-cancer drug",[16],+ + (Slight synergy relative to each agent alone (CI = 0.75-0.9 by Bliss Independence Model))
same,"synergy, additivity or antagonism of the combination of Example 3 with the anti-cancer drug",[17],+ (Additive relative to each agent alone (CI = 0.9-1 by Bliss Independence Model and <0.9 by Highest Single Agent Model))
same,"synergy, additivity or antagonism of the combination of Example 3 with the anti-cancer drug",[18],+ + (Slight synergy relative to each agent alone (CI = 0.75-0.9 by Bliss Independence Model))
same,"synergy, additivity or antagonism of the combination of Example 3 with the anti-cancer drug",[19],+ (Additive relative to each agent alone (CI = 0.9-1 by Bliss Independence Model and <0.9 by Highest Single Agent Model))
same,"synergy, additivity or antagonism of the combination of Example 3 with the anti-cancer drug",[20],+ (Additive relative to each agent alone (CI = 0.9-1 by Bliss Independence Model and <0.9 by Highest Single Agent Model))
same,"synergy, additivity or antagonism of the combination of Example 3 with the anti-cancer drug",[21],+ (Additive relative to each agent alone (CI = 0.9-1 by Bliss Independence Model and <0.9 by Highest Single Agent Model))
same,"synergy, additivity or antagonism of the combination of Example 3 with the anti-cancer drug",[22],+ + + + (Strong synergy relative to each agent alone (CI < 0.4 by Bliss Independence Model))
same,"synergy, additivity or antagonism of the combination of Example 3 with the anti-cancer drug",[23],+ (Additive relative to each agent alone (CI = 0.9-1 by Bliss Independence Model and <0.9 by Highest Single Agent Model))
same,"synergy, additivity or antagonism of the combination of Example 3 with the anti-cancer drug",[24],+ (Additive relative to each agent alone (CI = 0.9-1 by Bliss Independence Model and <0.9 by Highest Single Agent Model))
same,"synergy, additivity or antagonism of the combination of Example 3 with the anti-cancer drug",[25],+ + + (Synergy relative to each agent alone (CI = 0.4-0.74 by Bliss Independence Model))
same,"synergy, additivity or antagonism of the combination of Example 3 with the anti-cancer drug",[26],+ (Additive relative to each agent alone (CI = 0.9-1 by Bliss Independence Model and <0.9 by Highest Single Agent Model))
same,"synergy, additivity or antagonism of the combination of Example 3 with the anti-cancer drug",[27],+ (Additive relative to each agent alone (CI = 0.9-1 by Bliss Independence Model and <0.9 by Highest Single Agent Model))
same,"synergy, additivity or antagonism of the combination of Example 3 with the anti-cancer drug",[28],+ (Additive relative to each agent alone (CI = 0.9-1 by Bliss Independence Model and <0.9 by Highest Single Agent Model))
same,"synergy, additivity or antagonism of the combination of Example 3 with the anti-cancer drug",[29],+ (Additive relative to each agent alone (CI = 0.9-1 by Bliss Independence Model and <0.9 by Highest Single Agent Model))
same,"synergy, additivity or antagonism of the combination of Example 3 with the anti-cancer drug",[30],+ (Additive relative to each agent alone (CI = 0.9-1 by Bliss Independence Model and <0.9 by Highest Single Agent Model))
same,"synergy, additivity or antagonism of the combination of Example 3 with the anti-cancer drug",[31],+ (Additive relative to each agent alone (CI = 0.9-1 by Bliss Independence Model and <0.9 by Highest Single Agent Model))
